How the values were obtained:
[1] = system: human colon carcinoma cells HCT116; assay: Antiproliferative activity against HCT116, count of Hoechst labeled nuclei; type: cell-based; settings: for Normalized cell count (HCT 116): HCT116 colon carcinoma cells
Experimental: (§1) For examination of cell line-specific cytotoxicity, compounds were applied to human colorectal cancer cells (HCT116, denoted (1); SW480, denoted (2); Dld-1, denoted (3)) and human fibroblasts (HFF-1, denoted (4); HS-68, denoted (5)), cultured in Mc Coy's (1) and Dulbecco's Modified Eagles Medium ((2)-(5)), supplemented with 10% ((1)-(3)) and 20% ((4), (5)) fetal calf serum and 1% penicillin/streptomycin. Cells were grown in T75 flasks at 37 °C, 5% CO2 and trypsinized when 60-80% confluent by adding 2 ml of 0.25% Trypsin-EDTA solution. Cells were then re-suspended into culture medium yielding approx. 750 cells, suspended in 45 microl medium, were plated into each well of a black 384-well plate for fluorescence imaging experiments. 24 - 36 hr later 5 microl compound solution (100 microM compound dissolved in ultra pure water containing 1% DMSO), were added to achieve a final concentration of 10 microM and were incubated for at least 72 hr. Compound incubation was terminated by (a) fixation and (b) permeabilisation of cells, followed by (c) fluorescence labeling of cell nuclei for cytometric quantification or by immunocytochemistry for microscopic evaluation of cell morphology. The three steps were performed by replacing the solution of the previous step in each well of a 384-well plate by (a) 30 microl PBS (phosphate buffered saline) containing 5% PFA (paraformaldehyde), (b) 30 microl PBS containing 0.2% TritonX-100 and (c) 10 microl PBS containing Hoechst-33342 for cytometry or Hoechst-33342, FITC-(fluorescein isothiocyanate-)labeled alpha-tubulin antibodies and TRITC-(tetramethylrhodamine isothiocyanate-)labeled phalloidin for microscopy. Solutions were incubated for 15 (a,b) and 30 min (c) in the dark at room temperature. Cells were washed twice between each step with 30 microl PBS. The assay system was miniaturized and adapted to automated workflow using liquid-handling robotics.
Cell line-specific cytotoxicity was quantified by counting the number of Hoechst labeled nuclei per well of a 384-well plate using a plate cytometer. Data obtained with the cytometer was analysed using standard data analysis software. […]
The examination of the antiproliferative activity against human colon carcinoma cells HCT116 was carried out in analogy to example 203. […] Compounds of the present invention have potent antiproliferative acivity against human colon carcinoma cells as shown for HCT116 in Table 6.

Wnt signalling pathway = assay: Wnt-sensitive reporter gene assay (6xTCF-luciferase, pTOP-FLASH) in Hek293T cells; type: cell-based; settings: for Normalized Wnt pathway inhibitory activity: 24 h; for IC50: Homo sapiens, HEK-293T, 6xTCF-luciferase, 5nM - 100 microM, 24 h incubation, read-out: IC50 of the Wnt pathway inhibitory activity
Experimental: To screen for small-molecule modulators of the Wnt signalling pathway, a reporter gene based assay describing the modulation of the TCF4 transcription factor was used. More specifically 4000 Hek293T cells were seeded into 384 high density plates. 24h after seeding a Wnt-sensitive reporter (6xTCF-luciferase (Firefly) (pTOP-FLASH; "Armadillo coactivates transcription driven by the product of the Drosophila segment polarity gene dTCF", Cell, 1997, 88(6), pages 789-99)) and constitutively expressed control reporter (Renilla luciferase pCMV-RL) were transfected into Hek293T. Wnt signaling was stimulated by cotransfecting mouse Wnt1, mouse Frizzled 8 and human LRP6 according to "Casein kinase 1 gamma couples Wnt receptor activation to cytoplasmic signal transduction", Nature, 2005, 438(7069), pages 867-872. 24 h after pathway stimulation compounds were added at a concentration of 10 microM and allowed to incubate for 24 h. For the evaluation of the IC50 the compound was applied in increasing concentrations yielding final concentrations per well of 5nM - 100 microM.

HS68 = assay: Cell line specific cytotoxicity, count of Hoechst labeled nuclei, HS68 fibroblasts; type: cell-based, human; settings: for Normalized cell count (HS68): normal cells, at least 72 hr
Experimental: as §1, with “24 - 36 hr later 5 microl compound solution (100 microM compound dissolved in ultra pure water containing 1% DMSO), were added to achieve a final concentration of 10 microM and were incubated for at least 72 hr.” left out
Cell line-specific cytotoxicity was quantified by counting the number of Hoechst labeled nuclei per well of a 384-well plate using a plate cytometer. Data obtained with the cytometer was analysed using standard data analysis software.
Identified hits were further evaluated by visual inspection of fluorescence micrographs obtained from imaging using a conventional fluorescence microscope.

Structure (SMILES) | Normalized cell count (HCT 116) ([1]; 0.005 microM) | Normalized cell count (HCT 116) ([1]; 0.015 microM) | Normalized cell count (HCT 116) ([1]; 0.046 microM) | Normalized cell count (HCT 116) ([1]; 0.137 microM) | Normalized cell count (HCT 116) ([1]; 0.412 microM) | Normalized cell count (HCT 116) ([1]; 1.235 microM) | Normalized cell count (HCT 116) ([1]; 3.704 microM) | Normalized cell count (HCT 116) ([1]; 11.111 microM) | Normalized cell count (HCT 116) ([1]; 33.333 microM) | Normalized cell count (HCT 116) ([1]; 100.000 microM) | Normalized Wnt pathway inhibitory activity (Wnt signalling pathway; 0.005 microM) | Normalized Wnt pathway inhibitory activity (Wnt signalling pathway; 0.137 microM) | Normalized Wnt pathway inhibitory activity (Wnt signalling pathway; 0.412 microM) | Normalized Wnt pathway inhibitory activity (Wnt signalling pathway; 1.235 microM) | Normalized Wnt pathway inhibitory activity (Wnt signalling pathway; 3.704 microM) | Normalized Wnt pathway inhibitory activity (Wnt signalling pathway; 11.111 microM) | Normalized Wnt pathway inhibitory activity (Wnt signalling pathway; 33.333 microM) | Normalized Wnt pathway inhibitory activity (Wnt signalling pathway; 100.000 microM) | IC50 (Wnt signalling pathway) | Normalized cell count (HS68) (HS68; 0.005 microM) | other results
CCOC(=O)c1c(C)nc2c(c(N3CCN(C/C=C/c4ccccc4)CC3)nc(=O)n2-c2ccccc2)c1-c1ccccc1 [Example 153, 7-Methyl-2-oxo-1,5-diphenyl-4-[4-((E)-3-phenyl-allyl)-piperazin-1-yl]-1,2-dihydro-pyrido[2,3-d]pyrimidine-6-carboxylic acid ethyl ester] | 1 | 0.9124 | 0.9327 | 0.9534 | 0.8371 | 0.7255 | 0.538 | 0.1546 | 0.09126 | 0.1143 | 0.8000 | 0.9813 | 0.8173 | 0.5333 | 0.2410 | 0.1023 | 0.0518 | 0.0132 | 1600 ± 900 nM | 1 | IC50 ([1]; Homo sapiens, HCT-116, HCT116, read-out: IC50 of the antiproliferation activity): 3100 ± 600 nM; Normalized Wnt pathway inhibitory activity (Wnt signalling pathway; 0.046 microM): 1.0868; Normalized cell count (HS68) (HS68; 0.015 microM): 1.0005; Normalized cell count (HS68) (HS68; 0.046 microM): 0.9849; Normalized cell count (HS68) (HS68; 0.137 microM): 0.9755; Normalized cell count (HS68) (HS68; 0.412 microM): 0.9186; Normalized cell count (HS68) (HS68; 1.235 microM): 0.9639; Normalized cell count (HS68) (HS68; 3.704 microM): 0.9349; Effect on normal cells (HS-68) (HS68; 10 microM, HS-68 cell line): not affected; Normalized cell count (HS68) (HS68; 11.111 microM): 0.9432; Normalized cell count (HS68) (HS68; 33.333 microM): 0.826; Normalized cell count (HS68) (HS68; 100.000 microM): 0.2108
CCOC(=O)c1c(C)nc2c(c(N3CCN(Cc4ccccc4F)CC3)nc(=O)n2-c2ccccc2)c1-c1ccccc1 [Example 150] | 1 | 1.076 | 1.153 | 1.2 | 1.087 | 1.105 | 0.8597 | 0.4595 | 0.1363 | 0.1263 | 0.8990 | 1.0310 | 0.8660 | 0.6448 | 0.3170 | 0.2795 | 0.1573 | 0.1708 | 1600 ± 600 nM | 1 | Normalized Wnt pathway inhibitory activity (Wnt signalling pathway; 0.015 microM): 0.8480; Normalized Wnt pathway inhibitory activity (Wnt signalling pathway; 0.046 microM): 0.8763; Normalized cell count (HS68) (HS68; 0.015 microM): 1.018; Normalized cell count (HS68) (HS68; 0.046 microM): 1.012; Normalized cell count (HS68) (HS68; 0.137 microM): 0.9701; Normalized cell count (HS68) (HS68; 0.412 microM): 0.9865; Normalized cell count (HS68) (HS68; 1.235 microM): 0.9917; Normalized cell count (HS68) (HS68; 3.704 microM): 1.106; Normalized cell count (HS68) (HS68; 11.111 microM): 1.081; Normalized cell count (HS68) (HS68; 33.333 microM): 1.034; Normalized cell count (HS68) (HS68; 100.000 microM): 0.6334
CCOC(=O)c1c(C)nc2c(c(N3CCN(C(c4ccc(F)cc4)c4ccc(F)cc4)CC3)nc(=O)n2-c2ccccc2)c1-c1ccccc1 [Example 157] | 1 | 1.101 | 1.031 | 1.151 | 1.072 | 0.9399 | 0.8282 | 0.7256 | 0.3684 | 0.2263 | 0.9895 | 0.6610 | 1.2550 | 0.6557 | 0.3888 | 0.3733 | 0.1933 | 0.1651 | 1900 ± 900 nM | 1 | Normalized Wnt pathway inhibitory activity (Wnt signalling pathway; 0.015 microM): 1.0328; Normalized cell count (HS68) (HS68; 0.015 microM): 1.092; Normalized cell count (HS68) (HS68; 0.046 microM): 1.081; Normalized cell count (HS68) (HS68; 0.137 microM): 1.128; Normalized cell count (HS68) (HS68; 0.412 microM): 1.062; Normalized cell count (HS68) (HS68; 1.235 microM): 1.132; Normalized cell count (HS68) (HS68; 3.704 microM): 1.18; Normalized cell count (HS68) (HS68; 11.111 microM): 1.167; Normalized cell count (HS68) (HS68; 33.333 microM): 1.2661; Normalized cell count (HS68) (HS68; 100.000 microM): 1.294
